Literature values in patent US20070219250A1, “Pharmaceutical Compositions of Nateglinide” (priority 2003, published 2007).

- Solubility in water: insoluble
SMILES: CC(C)[C@H]1CC[C@H](C(=O)N[C@H](Cc2ccccc2)C(=O)O)CC1 [Nateglinide]
